Source: patent EP4700021A1, “NOVEL COMPOUND AND PHARMACEUTICAL COMPOSITION COMPRISING SAME AS ACTIVE INGREDIENT” (Sapiensbio Inc., priority 2023, dated 2025)

What follows are molecules tested on α-SMA (assay: in vitro α-SMA expression inhibition (immunostaining, confocal microscopy) in TGF-β1-treated MRC-5 cells). Conditions: Homo sapiens, TGF-β1 (5 ng/mL), 72 hours, standardized using GAPDH.
Format: cell-based, human
Excerpt: When scars are generated in tissue, fibroblasts undergo fibroblast-to-myofibroblast transition (FMT), and the resulting myofibroblasts produce the extracellular matrix, leading to tissue fibrosis. α-SMA is a representative biomarker of myofibroblasts, and its expression greatly increases as FMT progresses. Accordingly, through the evaluation of α-SMA expression inhibitory activity, the efficacy of the compounds in inhibiting fibrosis may be evaluated. Therefore, the inhibitory activity of the compounds of the present invention on α-SMA expression was evaluated in cells. To more accurately evaluate the inhibition of α-SMA expression, IC50 values were determined by treating human lung-derived fibroblasts (MRC-5 cells) with the compounds of the present invention in a concentration-dependent manner.
Specifically, 2 hours after the MRC-5 cells were treated with DMSO or compounds dissolved in serum containing 0.5% fetal bovine serum (FBS) in a concentration-dependent manner, fibrosis was induced by treatment with TGF-β1 (5 ng/mL). After 72 hours, the cells were immobilized with a 2% paraformaldehyde solution for 10 minutes, and to impart cell membrane permeability, a 0.1% Triton X-100 solution was treated for 10 minutes, and a 1% bovine serum albumin (BSA) solution was treated to prevent non-specific binding. For immunostaining, anti-GAPDH (BIO-RAD) was first treated as a primary antibody, and Alexa Fluor™ Plus 555 for GAPDH labeling was used as a secondary antibody. For α-SMA staining, an FITC fluorescence-tagged α-SMA primary antibody was used, and thus the increase and decrease in α-SMA caused by the compounds were evaluated. The immunohistochemical experimental results were confirmed with a STELLARIS 5 confocal microscope (Leica), and FITC-stained α-SMA was standardized using GAPDH labeled with Alexa FluorTM Plus 555 for quantification. The IC50 of the compounds according to the present invention was calculated through statistical analysis (linear mixed effects model). […]

SMILES | IC50
O=C(N1CCOCC1)N1CCN(c2ccccc2Cl)c2ccccc21 [Compound 9, (4-(2-chlorophenyl)-3,4-dihydroquinoxaline-1(2H)-yl)(morpholino)methanone] | ≤ 30 µM
O=C(NC1CCNCC1)N1CCN(c2cnccn2)c2ccccc21 [Compound 23, N-(piperidin-4-yl)-4-(pyrazin-2-yl)-3,4-dihydroquinoxaline-1(2H)-carboxamide] | 1 to 10 µM
O=C(N1CCCC1)N1CCN(c2ccccc2Cl)c2ccccc21 [Compound 8, (4-(2-chlorophenyl)-3,4-dihydroquinoxaline-1(2H)-yl)(pyrrolidin-1-yl)methanone] | 10 to 30 µM
O=C(N1CCNCC1)N1CCN(c2ccccc2Cl)c2ccccc21 [Compound 10, (4-(2-chlorophenyl)-3,4-dihydroquinoxaline-1(2H)-yl)(piperazin-1-yl)methanone] | < 1 µM
CN1CC[C@@H](COC(=O)N2CCN(c3cnccn3)c3ccccc32)C1 [Compound 31, (R)-(1-methylpyrrolidin-3-yl)methyl-4-(pyrazin-2-yl)-3,4-dihydroquinoxaline-1(2H)-carboxylate] | 1 to 10 µM
O=C(NCC1CCNCC1)N1CCN(Cc2ncccc2F)c2ccccc21 [Compound 68, 4-((3-fluoropyridin-2-yl)methyl)-N-(piperidin-4-ylmethyl)-3,4-dihydroquinoxaline-1(2H)-carboxamide] | ≤ 30 µM
O=C(N[C@@H]1CCNC1)N1CCN(Cc2ccccc2)c2ccccc21 [Compound 33, (R)-4-benzyl-N-(pyrrolidin-3-yl)-3,4-dihydroquinoxaline-1(2H)-carboxamide] | 1 to 10 µM
O=C(NC1CCNCC1)N1CCN(c2ccccn2)c2ccccc21 [Compound 13, N-(piperidin-4-yl)-4-(pyridin-2-yl)-3,4-dihydroquinoxaline-1(2H)-carboxamide] | 1 to 10 µM
O=C(NCC1CC1)N1CCN(c2ccc(F)cc2)c2ccccc21 [Compound 6, N-(cyclopropylmethyl)-4-(4-fluorophenyl)-3,4-dihydroquinoxaline-1(2H)-carboxamide] | 1 to 10 µM
CC(C)(C)CC(=O)N1CCN(C(=O)NCC2CCNCC2)c2ccccc21 [Compound 79, 4-(3,3-dimethylbutanoyl)-N-(piperidin-4-ylmethyl)-3,4-dihydroquinoxaline-1(2H)-carboxamide] | ≤ 30 µM
N[C@H]1CCN(C(=O)N2CCN(Cc3cccc(F)c3)c3ccccc32)C1 [Compound 39, (S)-(3-aminopyrrolidin-1-yl)(4-(3-fluorobenzyl)-3,4-dihydroquinoxaline-1(2H)-yl)methanone] | < 1 µM
O=C(NCC1COC1)N1CCN(Cc2ccccn2)c2ccccc21 [Compound 56, N-(oxetan-3-ylmethyl)-4-(pyridin-2-ylmethyl)-3,4-dihydroquinoxaline-1(2H)-carboxamide] | 10 to 30 µM
O=C(N1CCCCC1)N1CCN(C2CCCCC2)c2ccccc21 [Compound 71] | 1 to 10 µM
CC(C)CC(=O)N1CCN(C(=O)NCC2CCNCC2)c2ccccc21 [Compound 77, 4-(3-Methylbutanoyl)-N-(piperidin-4-ylmethyl)-3,4-dihydroquinoxaline-1(2H)-carboxamide] | ≤ 30 µM
CN1CCC(NC(=S)N2CCN(c3cnccn3)c3ccccc32)CC1 [Compound 29, N-(1-methylpiperidin-4-yl)-4-(pyrazin-2-yl)-3,4-dihydroquinoxaline-1 (2H)-carbothioamide] | 1 to 10 µM
CN1CCC(COC(=O)N2CCN(Cc3ccccn3)c3ccccc32)CC1 [Compound 65, (1-methylpiperidin-4-yl)methyl-4-(pyridin-2-ylmethyl)-3,4-dihydroquinoxaline-1(2H)-carboxylate] | 10 to 30 µM
CC1(NC(=O)N2CCN(Cc3ccccn3)c3ccccc32)COC1 [Compound 55, N-(3-Methyloxetan-3-yl)-4-(pyridin-2-ylmethyl)-3,4-dihydroquinoxaline-1(2H)-carboxamide] | < 1 µM
O=C(N[C@@H]1CCOC1)N1CCN(c2cccnc2)c2ccccc21 [Compound 16, (R)-4-(pyridin-3-yl)-N-(tetrahydrofuran-3-yl)-3,4-dihydroquinoxaline-1 (2H)-carboxamide] | 1 to 10 µM
CN1CC[C@H](NC(=O)N2CCN(c3cnccn3)c3ccccc32)C1 [Compound 20, (S)-N-(1-methylpyrrolidin-3-yl)-4-(pyrazin-2-yl)-3,4-dihydroquinoxaline-1(2H)-carboxamide] | < 1 µM

SMILES | IC50
CN1CCC(CNC(=O)N2CCN(Cc3ccc(F)cn3)c3ccccc32)CC1 [Compound 67, 4-((5-fluoropyridin-2-yl)methyl)-N-((1-methylpiperidin-4-yl)methyl)-3,4-dihydroquinoxaline-1(2H)-carboxamide] | ≤ 30 µM
O=C(NC1COC1)N1CCN(Cc2ccccn2)c2ccccc21 [Compound 54, N-(oxetan-3-yl)-4-(pyridin-2-ylmethyl)-3,4-dihydroquinoxaline-1(2H)-carboxamide] | < 1 µM
CN1CC[C@@H](COC(=O)N2CCN(Cc3ccccn3)c3ccccc32)C1 [Compound 64, (R)-(1-methylpyrrolidin-3-yl)methyl-4-(pyridin-2-ylmethyl)-3,4-dihydroquinoxaline-1(2H)-carboxylate] | < 1 µM
CC(C)(C)CC(=O)N1CCN(C(=O)N2CCNCC2)c2ccccc21 [Compound 78, 3,3-dimethyl-1-(4-(piperazine-1-carbonyl)-3,4-dihydroquinoxaline-1(2H)-yl)butan-1-one] | ≤ 30 µM
O=C(NC[C@@H]1CCOC1)N1CCN(Cc2ccccn2)c2ccccc21 [Compound 59, (S)-4-(pyridin-2-ylmethyl)-N-((tetrahydrofuran-3-yl)methyl)-3,4-dihydroquinoxaline-1(2H)-carboxamide] | < 1 µM
O=C(NC[C@H]1CCOC1)N1CCN(Cc2ccccn2)c2ccccc21 [Compound 60, (R)-4-(pyridin-2-ylmethyl)-N-((tetrahydrofuran-3-yl)methyl)-3,4-dihydroquinoxaline-1(2H)-carboxamide] | 10 to 30 µM
CC1(CNC(=O)N2CCN(Cc3ccccn3)c3ccccc32)COC1 [Compound 57, N-((3-methyloxetan-3-yl)methyl)-4-(pyridin-2-ylmethyl)-3,4-dihydroquinoxaline-1(2H)-carboxamide] | ≤ 30 µM
O=C(N[C@H]1CCNC1)N1CCN(c2cnccn2)c2ccccc21 [Compound 19, (S)-4-(pyrazin-2-yl)-N-(pyrrolidin-3-yl)-3,4-dihydroquinoxaline-1(2H)-carboxamide] | 1 to 10 µM
CN[C@H]1CCN(C(=O)N2CCN(Cc3ccccc3)c3ccccc32)C1 [Compound 36, (S)-(4-benzyl-3,4-dihydroquinoxaline-1(2H)-yl)(3-(methylamino)pyrrolidin-1-yl)methanone] | 10 to 30 µM
O=C(NC[C@@H]1CCNC1)N1CCN(c2ccccn2)c2ccccc21 [Compound 14, (R)-4-(pyridin-2-yl)-N-(pyrrolidin-3-ylmethyl)-3,4-dihydroquinoxaline-1(2H)-carboxamide] | 1 to 10 µM
CC(C)CN1CC[C@H](NC(=O)N2CCN(c3cnccn3)c3ccccc32)C1 [Compound 22, (S)-N-(1-isobutylpyrrolidin-3-yl)-4-(pyrazin-2-yl)-3,4-dihydroquinoxaline-1(2H)-carboxamide] | ≤ 30 µM
CN1CCN(C(=O)N2CCN(C3CCCCC3)c3ccccc32)CC1 [Compound 70, (4-cyclohexyl-3,4-dihydroquinoxaline-1(2H)-yl)(4-methylpiperazin-1-yl)methanone] | 1 to 10 µM
N[C@H]1CCN(C(=O)N2CCN(c3ccccn3)c3ccccc32)C1 [Compound 12, (S)-(3-aminopyrrolidin-1-yl)(4-(pyridin-2-yl)-3,4-dihydroquinoxaline-1(2H)-yl)methanone] | ≤ 30 µM
CC(C)CN1CCC(NC(=O)N2CCN(c3cnccn3)c3ccccc32)CC1 [Compound 27, N-(1-isobutylpiperidin-4-yl)-4-(pyrazin-2-yl)-3,4-dihydroquinoxaline-1(2H)-carboxamide] | 10 to 30 µM
CN1CCC(NC(=O)N2CCN(c3ccc(F)cn3)c3ccccc32)CC1 [Compound 18, 4-(5-fluoropyridin-2-yl)-N-(1-methylpiperidin-4-yl)-3,4-dihydroquinoxaline-1(2H)-carboxamide] | 1 to 10 µM
O=C(NCC1CCOC1)N1CCN(Cc2ccccn2)c2ccccc21 (stereo not shown) [Compound 58, 4-(pyridin-2-ylmethyl)-N-((tetrahydrofuran-3-yl)methyl)-3,4-dihydroquinoxaline-1(2H)-carboxamide] | < 1 µM
CC(C)N[C@H]1CCN(C(=O)N2CCN(Cc3ccc(F)cc3)c3ccccc32)C1 [Compound 42, (S)-(4-(4-fluorobenzyl)-3,4-dihydroquinoxaline-1(2H)-yl)(3-(isopropylamino)pyrrolidin-1-yl)methanone] | 1 to 10 µM
CN1CC[C@@H](NC(=O)N2CCN(Cc3ccccc3)c3ccccc32)C1 [Compound 34, (R)-4-benzyl-N-(1-methylpyrrolidin-3-yl)-3,4-dihydroquinoxaline-1(2H)-carboxamide] | 1 to 10 µM
